Test results: patent publication US20100021903A1, “Use of Genetic Determinants in Cardiovascular Risk Assessment” (priority 2006, published 2010)

Legend:
[1] = test system: hypertensive patients with coronary artery disease; assay: Blood pressure response to atenolol and number of antihypertensive drugs needed to reach BP control by ADRB1/ADRB2 genotype
[2] = test system: hypertensive patients with coronary artery disease; assay: Nested case-control study within INVEST-GENES: primary outcome, logistic regression; conditions: for SNP effect in arm (OR, 95% CI), Death / SNP effect in arm (OR, 95% CI), MI / SNP effect in arm (OR, 95% CI), Stroke: within treatment arm; for Total Number of Events: primary outcome; for OR, effect of CACNB2 rs2357928 genotype on the primary outcome, by treatment: within CCB-treated or β-blocker-treated patients; for OR, ALOX5 promoter polymorphism variant carriers, adverse cardiovascular outcomes, By Drug Therapy: within patients on the named drug
From the text: The model contained the following baseline covariates used for primary INVEST analyses: age, sex, race/ethnicity, body mass index, smoking, INVEST treatment strategy, previous myocardial infarction, previous stroke, heart failure, diabetes, renal insufficiency, baseline systolic blood pressure, diuretic use, and ACE inhibitor use, plus codon 65 and 110 genotype, and the interaction term between genotype and strategy assignment.
Relationships between single nucleotide polymorphisms (SNP) and haplotypes of arachidonate 5-lipoxygenase pathway genes and cardiovascular events were tested. […] A haplotype of ALOX5AP and SNPs was genotyped in both LTC4S and LTA4H, encoding 5-lipoxygenase activating protein, leukotriene C4 synthase and leukotriene A4 hydrolase respectively. The effects of these variants on the primary outcome using the X^2 test and logistic regression was analyzed.
Pharmacogenetic relationships were tested between a polymorphism of the LTA4H gene which encodes leukotriene A4 hydrolase and cardiovascular events based on drug-treatment. […] The LTA4H SNP rs2660845 were genotyped and analyzed the effect and interaction of this variant with antihypertensive drug treatment on the primary outcome with the X^2 test and logistic regression.
There was minimal linkage disequilibrium in CACNA1C and CACNB2. 8 SNPs in CACNA1C were examined in the case-control group.

[3] = test system: hypertensive patients with coronary artery disease; assay: INVEST-GENES cohort: primary and secondary cardiovascular outcomes (death, nonfatal MI, nonfatal stroke), Cox regression; conditions: for Incidence, Nonfatal MI / Incidence, Nonfatal Stroke / Incidence, Primary Outcome / Incidence, All-cause Mortality: crude incidence; for HR (95% CI) Atenolol vs. Verapamil, Nonfatal MI / HR (95% CI) Atenolol vs. Verapamil, Nonfatal Stroke / HR (95% CI) Atenolol vs. Verapamil, Primary Outcome: reduced model; for HR, KCNMB1 codon 110 (Leu110) variant allele on primary outcome, separately by treatment strategy: within patients randomized to the named drug
[4] = test system: hypertensive subjects; conditions: Nguyen et al. 2000; cited from earlier work
[5] = Patients on Atenolol (N = 2,830)
[6] = Patients on Atenolol, number of patients
[7] = LTA4H rs2660845 G-carriers (n = 466)
[8] = primary outcome, 0 GGC (ADRB2 46G-79G-523C) copies

## CC(C)NCC(O)COc1ccc(CC(N)=O)cc1 (stereo not drawn) [atenolol]
[1]; 1 copy GEC, 6 weeks
  covariate-adjusted systolic blood pressure reduction: −7.9 mmHg
[1]; 2 copies GEC, 6 weeks
  covariate-adjusted systolic blood pressure reduction: −6.7 mmHg
[1]; 619 blood pressure response study patients
  patients who achieved sustained blood pressure control: 79.8%
[1]; 619 patients whose BP change could be attributed to atenolol, mean±SD
  mean systolic blood pressure after 6 weeks of treatment: 139.7±18.3 mmHg
[1]; 619 patients, 6 weeks
  mean reduction in diastolic blood pressure: −6.2±10.3 mmHg
  mean reduction in systolic blood pressure: −11.1±19.5 mmHg
[1]; 619 patients, mean±SD
  mean diastolic blood pressure after 6 weeks of treatment: 80.4±9.9 mmHg
[1]; 2,772 patients with complete genotype data, <140/90 mmHg
  patients who achieved sustained blood pressure control: 75.0%
[1]; ADRB2 C523A AA
  Covariate-Adjusted Decline in blood pressure, Diastolic: −7.4 mmHg
  Covariate-Adjusted Decline in blood pressure, Systolic: −15.2 mmHg
[1]; ADRB2 C523A CA
  Covariate-Adjusted Decline in blood pressure, Diastolic: −4.5 mmHg
  Covariate-Adjusted Decline in blood pressure, Systolic: −9.9 mmHg
[1]; ADRB2 C523A CC
  Covariate-Adjusted Decline in blood pressure, Diastolic: −5.1 mmHg
  Covariate-Adjusted Decline in blood pressure, Systolic: −8.2 mmHg
[1]; ADRB2 Gln27Glu GlnGln
  Covariate-Adjusted Decline in blood pressure, Diastolic: −5.9 mmHg
  Covariate-Adjusted Decline in blood pressure, Systolic: −11.2 mmHg
[1]; ADRB2 Gln27Glu GlnGlu
  Covariate-Adjusted Decline in blood pressure, Diastolic: −4.8 mmHg
  Covariate-Adjusted Decline in blood pressure, Systolic: −8.8 mmHg
[1]; ADRB2 Gln27Glu GluGlu
  Covariate-Adjusted Decline in blood pressure, Diastolic: −3.4 mmHg
  Covariate-Adjusted Decline in blood pressure, Systolic: −6.0 mmHg
[1]; ADRB2 Gly16Arg ArgArg
  Covariate-Adjusted Decline in blood pressure, Diastolic: −4.9 mmHg
  Covariate-Adjusted Decline in blood pressure, Systolic: −8.0 mmHg
[1]; ADRB2 Gly16Arg GlyArg
  Covariate-Adjusted Decline in blood pressure, Diastolic: −5.9 mmHg
  Covariate-Adjusted Decline in blood pressure, Systolic: −10.9 mmHg
[1]; ADRB2 Gly16Arg GlyGly
  Covariate-Adjusted Decline in blood pressure, Diastolic: −4.2 mmHg
  Covariate-Adjusted Decline in blood pressure, Systolic: −9.0 mmHg
[1]; [5]
  DBP at 12 months, mean (SD): 78.3 mmHg
  DBP at 24 months, mean (SD): 77.7 mmHg
  SBP at 12 months, mean (SD): 134.0 mmHg
  SBP at 24 months, mean (SD): 132.3 mmHg
[1]; Patients on Atenolol (N = 2,830), atenolol-based strategy, SBP < 140 and DBP < 90 mmHg
  Percent of visits with blood pressure in control, mean (SD): 59.4
[1]; [6]
  BP in control at 12 months, No.: 1725
  BP in control at 24 months, No.: 1695
[1]; Patients on Atenolol, percentage of patients at risk at 12 months
  BP in control at 12 months, (%): (66.0) %
[1]; Patients on Atenolol, percentage of patients at risk at 24 months
  BP in control at 24 months, (%): (69.5) %
[1]; p values >0.2
  Association of ADRB1 haplotypes with blood pressure response to atenolol: not significantly associated
[2]; CACNA1C rs1051375
  RR: BB vs CCB by genotype, Death: 0.50
  RR: BB vs CCB by genotype, MI: 0.39
  RR: BB vs CCB by genotype, Stroke: 0.38
  SNP effect in arm (OR, 95% CI), Death: 0.64 (0.37-1.12)
  SNP effect in arm (OR, 95% CI), MI: 0.38 (0.22-0.68)
[2]; CACNA1C rs10848683
  SNP effect in arm (OR, 95% CI), Stroke: 0.706 (0.375, 1.329)
[2]; All subjects (n = 935)
  Total Number of Events: 113
[2]; LTA4H AA (n = 469)
  Total Number of Events: 41
[2]; [7]
  Total Number of Events: 63
[2]
  OR, effect of CACNB2 rs2357928 genotype on the primary outcome, by treatment: 0.50
  OR, ALOX5 promoter polymorphism variant carriers, adverse cardiovascular outcomes, By Drug Therapy: 1.577
[3]; 0 copies ADRB2 46G-79G-523C
  Incidence, Nonfatal MI: 3.5 per 1000 patient-years
  Incidence, Nonfatal Stroke: 4.2 per 1000 patient-years
  Incidence, Primary Outcome: 10.8 per 1000 patient-years
  HR (95% CI) Atenolol vs. Verapamil, Nonfatal MI: 0.60 (0.31-1.16)
  HR (95% CI) Atenolol vs. Verapamil, Nonfatal Stroke: 0.85 (0.44-1.62)
  HR (95% CI) Atenolol vs. Verapamil, Primary Outcome: 0.60 (0.41-0.87)
[3]; 1 copy ADRB2 46G-79G-523C
  Incidence, Nonfatal MI: 5.8 per 1000 patient-years
  Incidence, Nonfatal Stroke: 4.8 per 1000 patient-years
  HR (95% CI) Atenolol vs. Verapamil, Nonfatal MI: 1.94 (0.89-4.20)
  HR (95% CI) Atenolol vs. Verapamil, Nonfatal Stroke: 1.01 (0.50-2.05)
  HR (95% CI) Atenolol vs. Verapamil, Primary Outcome: 1.03 (0.69-1.54)
[3]; 2 copies ADRB2 46G-79G-523C
  Incidence, Nonfatal MI: 9.1 per 1000 patient-years
  Incidence, Nonfatal Stroke: 5.1 per 1000 patient-years
  Incidence, Primary Outcome: 22.3 per 1000 patient-years
  HR (95% CI) Atenolol vs. Verapamil, Nonfatal MI: 1.53 (0.51-4.57)
  HR (95% CI) Atenolol vs. Verapamil, Nonfatal Stroke: 0.79 (0.22-2.81)
  HR (95% CI) Atenolol vs. Verapamil, Primary Outcome: 1.35 (0.68-2.67)
[3]; carriers (1 or 2 copies) of ADRB2 46G-79G-523C haplotype
  HR, primary outcome, atenolol vs. verapamil SR: 1.10
[3]; non-carriers of ADRB2 46G-79G-523C haplotype
  HR, primary outcome, atenolol vs. verapamil SR: 0.59
[3]; [8]
  Events/1000 Patient-Years: 10.6 Events/1000 Patient-Years
[3]; primary outcome, 1 GGC copy
  Events/1000 Patient-Years: 15.1 Events/1000 Patient-Years
[3]; primary outcome, 2 GGC copies
  Events/1000 Patient-Years: 23.5 Events/1000 Patient-Years
[3]; primary outcome, All Patients
  Events/1000 Patient-Years: 13.6 Events/1000 Patient-Years
[3]
  HR, KCNMB1 codon 110 (Leu110) variant allele on primary outcome, separately by treatment strategy: 0.84

## NS(=O)(=O)c1cc2c(cc1Cl)NCNS2(=O)=O [diuretics, hydrochlorothiazide]
[3]; adjusted Cox PH model, primary outcome
  HR, interaction between ADD1 carrier status and diuretics: 1.02
[3]; regardless of ADD1 variant carrier status, Kaplan Meier
  Time to primary outcome event, users vs non-users of diuretics: not different

## COc1ccc(CCN(C)CCCC(C#N)(c2ccc(OC)c(OC)c2)C(C)C)cc1OC (stereo not drawn) [verapamil SR, verapamil]
[4]
  systolic blood pressure response, average decrease: 12 mmHg
[2]; All subjects (n = 935)
  Total Number of Events: 137
[2]; LTA4H AA (n = 469)
  Total Number of Events: 68
[2]; [7]
  Total Number of Events: 60
[2]
  OR, ALOX5 promoter polymorphism variant carriers, adverse cardiovascular outcomes, By Drug Therapy: 1.964
[3]; 0 copies ADRB2 46G-79G-523C
  Incidence, All-cause Mortality: 7.3 per 1000 patient-years
  Incidence, Nonfatal MI: 5.9 per 1000 patient-years
  Incidence, Nonfatal Stroke: 5.1 per 1000 patient-years
  Incidence, Primary Outcome: 18.3 per 1000 patient-years
[3]; 1 copy ADRB2 46G-79G-523C
  Incidence, All-cause Mortality: 7.0 per 1000 patient-years
  Incidence, Nonfatal MI: 2.9 per 1000 patient-years
  Incidence, Nonfatal Stroke: 4.7 per 1000 patient-years
  Incidence, Primary Outcome: 14.5 per 1000 patient-years
[3]; 2 copies ADRB2 46G-79G-523C
  Incidence, All-cause Mortality: 4.2 per 1000 patient-years
  Incidence, Nonfatal MI: 6.3 per 1000 patient-years
  Incidence, Nonfatal Stroke: 6.3 per 1000 patient-years
  Incidence, Primary Outcome: 17.0 per 1000 patient-years
[3]; Example 4
  Modification of the adverse effect of ADRB2 46G-79C-523C haplotype on primary outcome: Neither atenolol nor verapamil SR modified the adverse effect of this haplotype
[3]; patients treated with verapamil vs atenolol, FIG. 23
  Systolic and diastolic blood pressure control: did not differ
[3]; [8]
  Events/1000 Patient-Years: 18.0 Events/1000 Patient-Years
[3]; primary outcome, 1 GGC copy
  Events/1000 Patient-Years: 14.4 Events/1000 Patient-Years
[3]; primary outcome, 2 GGC copies
  Events/1000 Patient-Years: 17.1 Events/1000 Patient-Years
[3]; primary outcome, All Patients
  Events/1000 Patient-Years: 16.4 Events/1000 Patient-Years
[3]
  HR, KCNMB1 codon 110 (Leu110) variant allele on primary outcome, separately by treatment strategy: 0.55
[3]; within patients treated with the named drug
  HRadj, ADRB1 49S-389R haplotype on mortality, by treatment: 8.00

## verapamil [verapamil SR]
[2]; CACNA1C rs1051375
  SNP effect in arm (OR, 95% CI), Death: 1.28 (0.82, 2.0)
  SNP effect in arm (OR, 95% CI), MI: 0.97 (0.61-1.53)
  SNP effect in arm (OR, 95% CI), Stroke: 1.83 (1.13-2.97)
[2]; CACNA1C rs10848683
  SNP effect in arm (OR, 95% CI), Death: 0.659 (0.365, 1.192)
  SNP effect in arm (OR, 95% CI), MI: 0.733 (0.415, 1.294)
  SNP effect in arm (OR, 95% CI), Stroke: 1.340 (0.767, 2.341)
[2]
  OR, effect of CACNB2 rs2357928 genotype on the primary outcome, by treatment: 1.00
